Experimental data published in publication PMC5369052, “Calcium regulation of the human mitochondrial ATP-Mg/Pi carrier SLC25A24 uses a locking pin mechanism” (Scientific Reports, 2017).

How the values were obtained:
[1] = molecular target: T1, ∆1-191 APC1 (∆1-191_APC1) (Homo sapiens, UniProt Q6NUK1); assay: counter-exchange of internal ADP with external […]-ATP in proteoliposomes; assay type: biochemical; conditions: 2.5 mM internal ADP; 5 mM MgCl2 outside; pH 7.4, 20 °C
T1 construct: gene SLC25A24; carrier domain only, N-terminal truncation; His8-Factor Xa tag cut, primer adds TSED after IEGR; in liposomes
T1 sequence (Q6NUK1 191-477): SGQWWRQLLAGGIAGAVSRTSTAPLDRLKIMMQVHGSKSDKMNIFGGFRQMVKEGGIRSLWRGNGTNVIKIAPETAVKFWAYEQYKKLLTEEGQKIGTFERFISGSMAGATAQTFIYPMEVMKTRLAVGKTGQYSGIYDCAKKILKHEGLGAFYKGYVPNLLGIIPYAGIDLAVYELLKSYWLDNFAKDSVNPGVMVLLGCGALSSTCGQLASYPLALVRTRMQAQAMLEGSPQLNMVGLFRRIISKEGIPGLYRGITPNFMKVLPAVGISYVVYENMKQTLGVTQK

[2] = molecular target: T1, ∆1-191 APC1 (∆1-191_APC1); assay: […]-ATP uptake into proteoliposomes, initial rates; assay type: biochemical; conditions: 1.5 μM external ATP exchanged for 2.5 mM internal ADP; 5 mM MgCl2 outside; pH 7.4, 20 °C; labelled compound
[3] = substrate: Nc1ncnc2c1ncn2[C@@H]1O[C@H](COP(=O)(O)OP(=O)(O)OP(=O)(O)O)[C@@H](O)[C@H]1O; assay: purified protein; assay type: biochemical, Homo sapiens; conditions: 4 mM total external CaCl2 (calcium-activated state), 2.5 mM internal ATP, 20 mM Tris-HCl pH 7.4, 20 °C, labelled compound

Molecule: Nc1ncnc2c1ncn2[C@@H]1O[C@H](COP(=O)(O)OP(=O)(O)O)[C@@H](O)[C@H]1O [ADP]
- counter-exchange of internal ADP with external [14C]-ATP in proteoliposomes [1]: hetero-exchange between ATP and ADP was monitored over a 15-minute time course

Molecule: Nc1ncnc2c1ncn2[C@@H]1O[C@H](COP(=O)(O)OP(=O)(O)OP(=O)(O)O)[C@@H](O)[C@H]1O [ATP]
- [14C]-ATP uptake into proteoliposomes, initial rates [2]: uptake rate of ATP was highest in the presence of externally added magnesium

B1: full-length human mitochondrial ATP-Mg/Pi carrier isoform 1 (APC1; SCaMC1/SLC25A24) (Homo sapiens) (protein)
chain: MLRWLRDFVLPTAACQDAEQPTRYETLFQALDRNGDGVVDIGELQEGLRNLGIPLGQDAEEKIFTTGDVNKDGKLDFEEFMKYLKDHEKKMKLAFKSLDKNNDGKIEASEIVQSLQTLGLTISEQQAELILQSIDVDGTMTVDWNEWRDYFLFNPVTDIEEIIRFWKHSTGIDIGDSLTIPDEFTEDEKKSGQWWRQLLAGGIAGAVSRTSTAPLDRLKIMMQVHGSKSDKMNIFGGFRQMVKEGGIRSLWRGNGTNVIKIAPETAVKFWAYEQYKKLLTEEGQKIGTFERFISGSMAGATAQTFIYPMEVMKTRLAVGKTGQYSGIYDCAKKILKHEGLGAFYKGYVPNLLGIIPYAGIDLAVYELLKSYWLDNFAKDSVNPGVMVLLGCGALSSTCGQLASYPLALVRTRMQAQAMLEGSPQLNMVGLFRRIISKEGIPGLYRGITPNFMKVLPAVGISYVVYENMKQTLGVTQK
notes: full length, N-terminal His8 tag + Factor Xa site (IEGR), tag cut by factor Xa; codon-optimised, expressed in S. cerevisiae mitochondria; purified in LMNG, reconstituted in PC/cardiolipin liposomes
- Km [3]: 29 ± 8 µM
